Values after ≈ are worked out from the molar mass of the structure shown. Where two headings read alike, the source gives them in different places.
What was measured:
E. cloaceae (ATCC 13047) = settings: Table 6
[1] = system: P. aeruginosa (ATCC 27853); assay: microbe, parasite or virus in culture; settings: Pseudomonas aeruginosa, ATCC27853, read-out: MIC Compound alone
E. coli (ATCC 25922) [2] = system: E. coli (ATCC 25922)
[3] = system: A. baumannii (ATCC 19606); assay: microbe, parasite or virus in culture; settings: Acinetobacter baumannii, ATCC19606, read-out: MIC Compound alone
[4] = system: N. gonorrheae (ATCC 49226); assay: Antibacterial activity (MIC), Gram-negative type strain; assay type: cell-based, Neisseria gonorrhoeae; settings: Neisseria gonorrhoeae, ATCC49226; Table 13
[5] = system: A. baumannii drug resistant clinical isolates; assay: Antibacterial activity (MIC) against drug resistant clinical isolates, alone and with PMBN; assay type: cell-based; settings: for MIC: Acinetobacter baumannii, read-out: MIC Compound alone
[6] = system: P. aeruginosa drug resistant clinical isolates; assay: as above; assay type: cell-based; settings: for MIC: Pseudomonas aeruginosa, read-out: MIC Compound alone
E. coli (ATCC 25922) [7] = assay: microbe, parasite or virus in culture; settings: Escherichia coli, ATCC25922, read-out: MIC Compound alone, Table 1

CCNC(=O)Nc1nc2cc(-c3cnc(NS(=O)(=O)C(C)(C)C)nc3)cc(-c3ccc(C)cn3)c2s1 [Compound A-13, 1-[5-[2-(tert-Butylsulfonylamino)pyrimidin-5-yl]-7-(5-methyl-2-pyridyl)-1,3-benzothiazol-2-yl]-3-ethyl-urea]
MIC of Compound (μg/ml) in the presence of PMBN (128 μg/ml) (E. cloaceae (ATCC 13047)): 0.25 µg/mL
MIC [1]: 4 µg/mL (≈ 7.61 µM)
MIC of Compound (μg/ml) in the presence of PMBN (128 μg/ml) (E. coli (ATCC 25922) [2]; Table 1, (b) No effect): 0.008 µg/mL
MIC of Compound (μg/ml) in the presence of Colistin (1 μg/ml) (E. coli (ATCC 25922) [2]; Table 2, colistin sub-inhibitory): 0.25 µg/mL
MIC of Compound (μg/ml) in the presence of PMB (0.5 μg/ml) (E. coli (ATCC 25922) [2]; Table 3, PMB sub-inhibitory): 0.12 µg/mL
MIC [3]: 1 µg/mL (≈ 1.9 µM)
MIC [4]: ≤ 0.008 µg/mL
MIC of Compound (μg/ml) in the presence of PMBN (128 μg/ml) ([5]; A. baumannii (MMX 2585)): 0.12 µg/mL
MIC of Compound (μg/ml) in the presence of PMBN (128 μg/ml) ([5]; A. baumannii (MMX 2598)): 0.06 µg/mL
MIC of Compound (μg/ml) in the presence of PMBN (128 μg/ml) ([5]; A. baumannii (MMX 2600)): 0.06 µg/mL
MIC of Compound (μg/ml) in the presence of PMBN (128 μg/ml) ([5]; A. baumannii (MMX 4405)): 0.12 µg/mL
MIC of Compound (μg/ml) in the presence of PMBN (128 μg/ml) ([5]; A. baumannii (MMX 4454)): 0.12 µg/mL
MIC of Compound (μg/ml) in the presence of PMBN (128 μg/ml) ([5]; A. baumannii (MMX 6331)): 0.06 µg/mL
MIC of Compound (μg/ml) in the presence of PMBN (128 μg/ml) ([5]; A. baumannii (NCTC13301)): 0.12 µg/mL
MIC of Compound (μg/ml) in the presence of PMBN (128 μg/ml) ([5]; A. baumannii (NCTC13302)): 0.03 µg/mL
MIC of Compound (μg/ml) in the presence of PMBN (128 μg/ml) ([5]; A. baumannii (NCTC13303)): 0.06 µg/mL
MIC of Compound (μg/ml) in the presence of PMBN (128 μg/ml) ([5]; A. baumannii (NCTC13304)): 0.03 µg/mL
MIC of Compound (μg/ml) in the presence of PMBN (128 μg/ml) ([5]; A. baumannii (NCTC13305)): 0.12 µg/mL
MIC of Compound (μg/ml) in the presence of PMBN (128 μg/ml) ([5]; A. baumannii (NCTC 13420)): 0.03 µg/mL
MIC of Compound (μg/ml) in the presence of PMBN (128 μg/ml) ([5]; A. baumannii (NCTC13421)): 0.03 µg/mL
MIC of Compound (μg/ml) in the presence of PMBN (128 μg/ml) ([5]; A. baumannii (NCTC13422)): 0.03 µg/mL
MIC of Compound (μg/ml) in the presence of PMBN (128 μg/ml) ([5]; A. baumannii (NCTC13424)): 0.03 µg/mL
MIC ([5]; A. baumannii (MMX 2585)): 4 µg/mL (≈ 7.61 µM)
MIC ([5]; A. baumannii (MMX 2598)): 2 µg/mL (≈ 3.8 µM)
MIC ([5]; A. baumannii (MMX 2600)): 2 µg/mL (≈ 3.8 µM)
MIC ([5]; A. baumannii (MMX 4405)): 4 µg/mL (≈ 7.61 µM)
MIC ([5]; A. baumannii (MMX 4454)): 1 µg/mL (≈ 1.9 µM)
MIC ([5]; A. baumannii (MMX 6331)): 4 µg/mL (≈ 7.61 µM)
MIC ([5]; NCTC13301, A. baumannii (NCTC13301)): 4 µg/mL (≈ 7.61 µM)
MIC ([5]; NCTC13302, A. baumannii (NCTC13302)): 1 µg/mL (≈ 1.9 µM)
MIC ([5]; NCTC13303, A. baumannii (NCTC13303)): 2 µg/mL (≈ 3.8 µM)
MIC ([5]; NCTC13304, A. baumannii (NCTC13304)): 1 µg/mL (≈ 1.9 µM)
MIC ([5]; NCTC13305, A. baumannii (NCTC13305)): 2 µg/mL (≈ 3.8 µM)
MIC ([5]; NCTC13420, A. baumannii (NCTC 13420)): 1 µg/mL (≈ 1.9 µM)
MIC ([5]; NCTC13421, A. baumannii (NCTC13421)): 2 µg/mL (≈ 3.8 µM)
MIC ([5]; NCTC13422, A. baumannii (NCTC13422)): 4 µg/mL (≈ 7.61 µM)
MIC ([5]; NCTC13424, A. baumannii (NCTC13424)): 1 µg/mL (≈ 1.9 µM)
MIC of Compound (μg/ml) in the presence of PMBN (128 μg/ml) ([6]; P. aeruginosa (MMX3007)): 0.03 µg/mL
MIC of Compound (μg/ml) in the presence of PMBN (128 μg/ml) ([6]; P. aeruginosa (MMX3022)): 0.03 µg/mL
MIC of Compound (μg/ml) in the presence of PMBN (128 μg/ml) ([6]; P. aeruginosa (MMX3025)): 0.03 µg/mL
MIC of Compound (μg/ml) in the presence of PMBN (128 μg/ml) ([6]; P. aeruginosa (MMX3026)): ≦0.008 μg/ml
MIC of Compound (μg/ml) in the presence of PMBN (128 μg/ml) ([6]; P. aeruginosa (MMX4700)): 0.12 µg/mL
MIC of Compound (μg/ml) in the presence of PMBN (128 μg/ml) ([6]; P. aeruginosa (NCTC13437)): 0.016 µg/mL
MIC ([6]; NCTC13437, P. aeruginosa (NCTC13437)): 16 µg/mL (≈ 30.4 µM)
MIC ([6]; P. aeruginosa (MMX3007)): > 16 µg/mL
MIC ([6]; P. aeruginosa (MMX3022)): 8 µg/mL (≈ 15.2 µM)
MIC ([6]; P. aeruginosa (MMX3025)): > 16 µg/mL
MIC ([6]; P. aeruginosa (MMX3026)): > 16 µg/mL
MIC ([6]; P. aeruginosa (MMX4700)): 16 µg/mL (≈ 30.4 µM)
MIC (E. coli (ATCC 25922) [7]): 1 µg/mL (≈ 1.9 µM)

— patent US20170007615A1, “Antibacterial Compounds” (priority 2014, published 2017)
